{"source": "patent US8609650B2", "about": "“Bridged bicyclic aryl and bridged bicyclic heteroaryl substituted triazoles useful as Axl inhibitors” (Rigel Pharmaceuticals, Inc., priority 2006, dated 2013)"}
{"molecular_target": "T1, Axl (Homo sapiens, UniProt P30530)", "T1 construct": "endogenous in cells; host or cells: HeLa cells", "T1 sequence (P30530 26-894)": "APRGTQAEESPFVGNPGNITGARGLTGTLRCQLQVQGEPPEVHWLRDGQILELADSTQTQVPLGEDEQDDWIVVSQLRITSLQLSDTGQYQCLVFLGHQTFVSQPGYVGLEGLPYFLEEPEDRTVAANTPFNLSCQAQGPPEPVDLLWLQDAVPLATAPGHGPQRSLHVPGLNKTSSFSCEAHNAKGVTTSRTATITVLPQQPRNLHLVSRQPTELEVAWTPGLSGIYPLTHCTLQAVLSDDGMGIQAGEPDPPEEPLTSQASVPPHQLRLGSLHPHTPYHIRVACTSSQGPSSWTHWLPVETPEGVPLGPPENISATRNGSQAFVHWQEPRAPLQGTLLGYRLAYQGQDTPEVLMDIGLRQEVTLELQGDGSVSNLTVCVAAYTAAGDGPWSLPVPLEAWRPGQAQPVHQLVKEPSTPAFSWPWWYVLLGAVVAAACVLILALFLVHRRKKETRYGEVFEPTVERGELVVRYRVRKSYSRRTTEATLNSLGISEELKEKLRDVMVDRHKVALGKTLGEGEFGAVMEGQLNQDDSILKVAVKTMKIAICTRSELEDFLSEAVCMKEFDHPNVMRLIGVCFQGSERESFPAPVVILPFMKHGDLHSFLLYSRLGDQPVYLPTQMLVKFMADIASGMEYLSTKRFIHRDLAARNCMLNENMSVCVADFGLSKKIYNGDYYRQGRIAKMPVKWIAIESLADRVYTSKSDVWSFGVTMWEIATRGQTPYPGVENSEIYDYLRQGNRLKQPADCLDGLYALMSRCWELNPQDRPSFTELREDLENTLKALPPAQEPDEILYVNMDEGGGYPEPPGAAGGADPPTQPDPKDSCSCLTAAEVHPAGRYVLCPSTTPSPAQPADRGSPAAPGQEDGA", "assay": "Phospho-Akt In-Cell Western Assay (ability to inhibit Axl activity)", "format": "cell-based", "conditions": "Hela cells, stimulated by Axl-antibody cross-linking, phospho-Akt chemiluminescence normalized to relative cell number", "description": "The compounds of the invention were tested in the following assay for their ability to inhibit Axl activity.\nPhospho-Akt In-Cell Western Assay\n• Cell culture plate: 96 well assay plate (Corning 3610), white, clear bottom, tissue-culture treated. • Cells: Hela cells. • Starvation medium: For Axl stimulation: 0.5% FCS (fetal calf serum) in DMEM, plus Axl/Fc (extracellular domain of AXL fused to immunoglobulin Fc region) (R&D, 154-AL) 500 ng/mL. • For EGF (epidermal growth factor) stimulation: 0.5% FCS in DMEM (Dulbecco's modified Eagles medium). • Poly-L-Lysine 0.01% solution (the working solution): 10 μg/ml, dilute In PBS (phosphate buffered saline). • Axl antibody cross-linking: • 1st: Mouse anti-Axl (R&D, MAB154). • 2nd: Biotin-SP-conjugated AffiniPure goat anti-mouse IgG (H+L) (Jackson ImmunoResearch #115-065-003). • Fixing buffer: 4% formaldehyde in PBS. • Wash buffer: 0.1% TritonX-100 in PBS. • Quenching buffer: 3% H2O2, 0.1% Azide in wash buffer, Azide and hydrogen peroxide (H2O2) are added fresh. • Blocking buffer: 5% BSA in TBST (tris buffered saline plus 0.1% Tween 20). • Primary antibody: Rabbit anti-human Phospho-Akt antibody (Cell Signaling 9271): 1×250 diluted in blocking buffer. • Secondary antibody: HRP (horse radish peroxidase)-conjugated Goat anti-Rabbit secondary, stock solution: Jackson ImmunoResearch (Goat anti-Rabbit HRP, #111-035-144) 1:1 diluted in glycerol, store at −20° C. The working solution: 1×2000 dilution of stock in blocking buffer. • Chemiluminescent working solution (Pierce, 37030): SuperSignal ELISA (enzyme linked immunosorbant assay) Pico Chemiluminescent substrate. • Crystal Violet solution: Stock: 2.5% Crystal violet in methanol, filtered and kept at ambient temperature. The working solution: dilute the stock 1:20 with PBS immediately before use. • 10% SDS: working solution: 5% SDS (sodium dodecylsulfate), diluted in PBS Methods: Day 1:\nA 96 well TC (tissue culture treated) plate was coated with 10 μg/mL poly-L-Lysine at 37° C. for 30 min, washed twice with PBS, and air-dried for 5 minutes before cells were added. Hela cells were seeded at 10,000 cells/well and the cells were starved in 100 μL starvation medium containing Axl/Fc for 24 hrs.\nThe cells were pre-treated with test compounds by adding 100 μL of 2× test compound to the starvation medium on the cells. The cells were incubated at 37° C. for 1 hr before stimulation.\nThe cells were stimulated by Axl-antibody cross-linking as follows: A 5×1st/2nd Axl antibody mixture was made (37.5 μg/mL 1st/100 μg/mL 2nd) in starvation medium and nutated at 4° C. with thorough mixing for 1-2 hours for clustering. The resulting mix was warmed to 37° C. 50 μL of 5× Axl 1st/2nd of antibody cluster was added to the cells and the cells were incubated at 37° C. for 5 min.\nAfter 5 minutes stimulation, the plate was flicked to remove medium and the plate was tapped onto paper towels. Formaldehyde (4.0% in PBS, 100 μL) was added to fix the cells and the cells were incubated at ambient temperature for 20 min without shaking.\nThe cells were washed with a plate washer buffer to remove the formaldehyde solution. The plate was flicked to removed excess wash buffer and tapped onto paper towels. Quenching buffer (100 μL) was added to each well and the cells were incubated at ambient temperature for 20 minutes without shaking.\nThe cells were washed with a plate washer buffer to remove the quenching buffer. Blocking buffer (100 μL) was added and the cells were incubated at ambient temperature for at least an hour with gentle shaking.\nThe cells were washed with a plate washer buffer and diluted primary antibody (50 μL) was added to each well (blocking buffer was added to the negative control wells instead). The plates were incubated overnight at 4° C. with gentle shaking.\nThe wash buffer was removed, diluted secondary antibody (100 μL) was added, and the cells were incubated at ambient temperature for 1 hour with gentle shaking. […]", "units": {"IC50": "nM"}}
{"compound": "1-(5,8-dimethylmethano-8-methyl-5,6,7-trihydroquinazolin-2-yl)-N^3-(3-fluoro-4-(4-(pyrrolidin-1-yl)piperidin-1-yl)phenyl)-1H-1,2,4-triazole-3,5-diamine [Compound 21]", "IC50": "< 1000"}
{"compound": "1-(5,8-methano-5,6,7,8-tetrahydroquinazolin-2-yl)-N^3-(4-(morpholin-1-yl)phenyl)-1H-1,2,4-triazole-3,5-diamine [Compound 5]", "IC50": "1000 to 10000"}
{"compound": "1-((6R,8R)-6,8-dimethylmethano-5,6,7,8-tetrahydroquinoline-2-yl)-N^3-(3-fluoro-4-(4-(pyrrolidin-1-yl)piperidin-1-yl)phenyl)-1H-1,2,4-triazole-3,5-diamine [Compound 34]", "IC50": "< 1000"}
{"compound": "Nc1nc(Nc2ccc(OCCN3CCCC3)cc2)nn1-c1ncc2c(n1)C1CCC2C1", "note": "(stereo not shown) [Compound 1, 1-(5,8-methano-5,6,7,8-tetrahydroquinazolin-2-yl)-N^3-(4-(2-(pyrrolidin-1-yl)ethoxy)phenyl)-1H-1,2,4-triazole-3,5-diamine]", "IC50": "> 20000"}
{"compound": "CCSc1nc2c(c(-n3nc(Nc4ccc(OCCN5CCCC5)cc4)nc3N)n1)C1CCC2C1", "note": "(stereo not shown) [Compound 2, 1-(2-ethylthio-5,8-methano-5,6,7,8-tetrahydroquinazolin-4-yl)-N^3-(4-(2-(pyrrolidin-1-yl)ethoxy)phenyl)-1H-1,2,4-triazole-3,5-diamine]", "IC50": "< 1000"}
{"compound": "CN1CCCC(Oc2ccc(Nc3nc(N)n(-c4ncc5c(n4)C4CCC5C4)n3)cc2)C1", "note": "(stereo not shown) [Compound 3, (5,8-methano-5,6,7,8-tetrahydroquinazolin-2-yl)-N^3-(4-(1-methyl(piperidin-3-yl)oxy)phenyl)-1H-1,2,4-triazole-3,5-diamine]", "IC50": "< 1000"}
{"compound": "CN1CCN(c2ccc(Nc3nc(N)n(-c4ncc5c(n4)C4CCC5C4)n3)cc2)CC1", "note": "(stereo not shown) [Compound 4, 1-(5,8-methano-5,6,7,8-tetrahydroquinazolin-2-yl)-N^3-(4-(4-methylpiperazin-1-yl)phenyl)-1H-1,2,4-triazole-3,5-diamine]", "IC50": "< 1000"}
{"compound": "Nc1nc(Nc2ccc(N3CCN(C4CCCCC4)CC3)cc2)nn1-c1ncc2c(n1)C1CCC2C1", "note": "(stereo not shown) [Compound 6, 1-(5,8-methano-5,6,7,8-tetrahydroquinazolin-2-yl)-N^3-(4-(4-cyclohexanylpiperazin-1-yl)phenyl)-1H-1,2,4-triazole-3,5-diamine]", "IC50": "< 1000"}
{"compound": "Nc1nc(Nc2ccc(N3CCN(C4CC5CCC4C5)CC3)cc2)nn1-c1ncc2c(n1)C1CCC2C1", "note": "(stereo not shown) [Compound 8, N^3-(4-(4-(bicyclo[2.2.1]heptan-2-yl)piperazin-1-yl)phenyl)-1-(5,8-methano-5,6,7,8-tetrahydroquinazolin-2-yl)-1H-1,2,4-triazole-3,5-diamine]", "IC50": "< 1000"}
{"compound": "Nc1nc(Nc2ccc(N3CCN(C4CCCCCCC4)CC3)cc2)nn1-c1ncc2c(n1)C1CCC2C1", "note": "(stereo not shown) [Compound 9, N^3-(4-(4-cyclooctylpiperazin-1-yl)phenyl)-1-(5,8-methano-5,6,7,8-tetrahydroquinazolin-2-yl)-1H-1,2,4-triazole-3,5-diamine]", "IC50": "< 1000"}
{"compound": "Nc1nc(Nc2ccc(N3CCN(C4CCCCCC4)CC3)cc2)nn1-c1ncc2c(n1)C1CCC2C1", "note": "(stereo not shown) [Compound 10, N^3-(4-(4-cycloheptylpiperazin-1-yl)phenyl)-1-(5,8-methano-5,6,7,8-tetrahydroquinazolin-2-yl)-1H-1,2,4-triazole-3,5-diamine]", "IC50": "< 1000"}
{"compound": "Nc1nc(Nc2ccc(N3CCC(N4CCCC4)CC3)c(F)c2)nn1-c1ncc2c(n1)C1CCC2C1", "note": "(stereo not shown) [Compound 11, 1-(5,8-methano-5,6,7,8-tetrahydroquinazolin-2-yl)-N^3-(3-fluoro-4-(4-(pyrrolidin-1-yl)piperidin-1-yl)phenyl)-1H-1,2,4-triazole-3,5-diamine]", "IC50": "< 1000"}
{"compound": "CN1CCC(c2ccc(Nc3nc(N)n(-c4ncc5c(n4)C4CCC5C4)n3)cc2)CC1", "note": "(stereo not shown) [Compound 12, N^3-(4-(1-methylpiperidin-4-yl)phenyl)-1-(5,8-methano-5,6,7,8-tetrahydroquinazolin-2-yl)-1H-1,2,4-triazole-3,5-diamine]", "IC50": "> 20000"}
{"compound": "Nc1nc(Nc2ccc3c(c2)CCNC3)nn1-c1ncc2c(n1)C1CCC2C1", "note": "(stereo not shown) [Compound 13, 1-(5,8-methano-5,6,7,8-tetrahydroquinazolin-2-yl)-N^3-(1,2,3,4-tetrahydroisoquinolin-6-yl)-1H-1,2,4-triazole-3,5-diamine]", "IC50": "> 20000"}
{"compound": "Cc1csc2c(-n3nc(Nc4ccc5c(c4)CC4CCC(C5)C4N4CCCC4)nc3N)nc(Cl)nc12", "note": "(stereo not shown) [Compound 15, 1-(2-chloro-7-methylthieno[3,2-d]pyrimidin-4-yl)-N^3-(7-pyrrolidin-1-yl-6,8-ethano-6,7,8,9-tetrahydro-5H-benzo[7]annulene-3-yl)-1H-1,2,4-triazole-3,5-diamine]", "IC50": "< 1000"}
{"compound": "COc1cc2ncnc(-n3nc(Nc4ccc5c(c4)CC4CCC(C5)C4N4CCCC4)nc3N)c2cc1OC", "note": "(stereo not shown) [Compound 16, 1-(6,7-dimethoxyquinazolin-4-yl)-N^3-(7-pyrrolidin-1-yl-6,8-ethano-6,7,8,9-tetrahydro-5H-benzo[7]annulene-3-yl)-1H-1,2,4-triazole-3,5-diamine]", "IC50": "< 1000"}
{"compound": "CCN(CC)C1CCN(c2ccc(Nc3nc(N)n(-c4ncnc5c4C4CCC5C4)n3)cc2F)CC1", "note": "(stereo not shown) [Compound 17, 1-(5,8-methano-5,6,7,8-tetrahydroquinazolin-4-yl)-N^3-(3-fluoro-4-(4-diethylaminopiperidin-1-yl)phenyl)-1H-1,2,4-triazole-3,5-diamine]", "IC50": "< 1000"}
{"compound": "Nc1nc(Nc2ccc(N3CCN(C4CC5CCC4C5)CC3)cc2)nn1-c1ncnc2c1C1CCC2C1", "note": "(stereo not shown) [Compound 18, 1-(5,8-methano-5,6,7,8-tetrahydroquinazolin-4-yl)-N^3-(4-(4-(bicyclo[2.2.1]heptan-2-yl)piperazin-1-yl)phenyl)-1H-1,2,4-triazole-3,5-diamine]", "IC50": "< 1000"}
{"compound": "Nc1nc(Nc2ccc(OCCN3CCCC3)cc2)nn1-c1ncnc2c1C1CCC2C1", "note": "(stereo not shown) [Compound 19, 1-(5,8-methano-5,6,7,8-tetrahydroquinazolin-4-yl)-N^3-(4-(2-(pyrrolidin-1-yl)ethoxy)phenyl)-1H-1,2,4-triazole-3,5-diamine]", "IC50": "< 1000"}
